This is an account of results in patent US10112907B2, “Substituted indazoles for treating tendon and/or ligament injuries” (NOVARTIS AG, priority 2016, dated 2018).

Assay [1] concerns Scleraxis (Scx) gene transcriptional activation in TT-D6 Scx-luciferase (ScxL) cell line. The experiment in a line: SCX-LUC in vitro assay (Scx-luciferase reporter). The assay is classed as cell-based. The following applies: Mus musculus.
For assay [2], the system named is Scleraxis (Scx) gene expression in rat tail tendon fascicles. The experiment in a line: Ex vivo assay, Scx mRNA in tendon fascicles (qPCR). In kind it is cell-based, Sprague Dawley rat.
Assay [3] concerns Tenomodulin (Tnmd) gene expression in rat tail tendon fascicles. The experiment in a line: Ex vivo assay, Tnmd mRNA in tendon fascicles (qPCR). In kind it is cell-based, Sprague Dawley rat.
The subject of assay [4] is collagen type I (Col1a2) gene expression in rat tail tendon fascicles. The experiment in a line: Ex vivo assay, Col1a2 mRNA in tendon fascicles (qPCR). In kind it is cell-based, Sprague Dawley rat.
Where [5] appears, read: 96 h, Table 3, four days, read-out: Scx-Luc (EC50 μM).
Where [6] appears, read: 96 h, Table 3, four days, read-out: Ex vivo Scx (EC50 μM).
Where [7] appears, read: 96 h, Table 3, four days, read-out: Ex vivo Tnmd (EC50 μM).
Setting [8] is: 96 h, Table 3, four days, read-out: Ex vivo Col1a2 (EC50 μM).

Read-outs that look alike come from different tables or passages of the source.

With `O=C(Nc1nc2cccc(-c3ccc(CN4CCS(=O)(=O)CC4)cc3)n2n1)C1CC1` [reference compound], the EC50 in assay [1] (read-out: Scx-Luc (EC50 uM)) amounted to 4.32 µM; in assay [2] (read-out: Ex vivo SCX (EC50 uM)) it was 5.34 µM; in assay [3] (read-out: Ex vivo Tnmd (EC50 uM)) it was 6.93 µM; in assay [4] (read-out: Ex vivo Col1a2 (EC50 uM)), 5.01 µM. In the case of `Cc1cc(S(=O)(=O)N[C@H]2C[C@](O)(C(F)(F)F)C2)ccc1-c1ccc2[nH]nc(N)c2c1C` [Example 31, 4-(3-amino-4-methyl-1H-indazol-5-yl)-N-((1s,3s)-3-hydroxy-3-(trifluoromethyl)cyclobutyl)-3-methylbenzenesulfonamide], the half-maximal effective concentration (EC50) in assay [1] (setting [5]) turned out to be 0.126 µM; in assay [2] (setting [6]), 5.54 µM; in assay [3] (setting [7]), 3.77 µM; in assay [4] (setting [8]), 4.18 µM. The corresponding values for `CCC1(O)CC(NS(=O)(=O)c2ccc(-c3ccc4[nH]nc(N)c4c3C)c(C)c2)C1` (stereo not shown) [Example 49, 4-(3-amino-4-methyl-1H-indazol-5-yl)-N-(3-ethyl-3-hydroxycyclobutyl)-3-methylbenzenesulfonamide] are 0.852 µM, 3.04 µM, 2.78 µM and 2.23 µM.

Take `Cc1cc(S(=O)(=O)NC2CCCC(O)C2)ccc1-c1ccc2[nH]nc(N)c2c1C` (stereo not shown) [Example 25, 4-(3-amino-4-methyl-1H-indazol-5-yl)-N-(3-hydroxycyclohexyl)-3-methylbenzenesulfonamide]: in assay [1] (setting [5]), the EC50 is 0.606 µM. For `COc1c(-c2ccc(S(=O)(=O)N3CC(F)(F)C[C@H]3CO)cc2C)ccc2[nH]nc(N)c12` [Example 85, (S)-(1-((4-(3-amino-4-methoxy-1H-indazol-5-yl)-3-methylphenyl)sulfonyl)-4,4-difluoropyrrolidin-2-yl)methanol], the EC50 in assay [1] (setting [5]) came to 1.79 µM. Take `Cc1c(-c2ccc(S(=O)(=O)N3CC(F)(F)C[C@H]3CO)cc2Cl)ccc2[nH]nc(N)c12` [Example 56, (S)-(1-((4-(3-amino-4-methyl-1H-indazol-5-yl)-3-chlorophenyl)sulfonyl)-4,4-difluoropyrrolidin-2-yl)methanol]: in assay [1] (setting [5]), the EC50 is 0.764 µM. Regarding `Nc1n[nH]c2ccc(-c3ccc(S(=O)(=O)NC4CC(F)(F)C4)cc3Cl)c(Cl)c12` [Example 67, 4-(3-amino-4-chloro-1H-indazol-5-yl)-3-chloro-N-(3,3-difluorocyclobutyl)benzenesulfonamide], the EC50 in assay [1] (setting [5]) was determined as 0.535 µM. As to `Cc1cc(S(=O)(=O)N[C@@H]2CCC[C@H]2O)ccc1-c1ccc2[nH]nc(N)c2c1C` [Example 15, 4-(3-amino-4-methyl-1H-indazol-5-yl)-N-((1R,2R)-2-hydroxycyclopentyl)-3-methylbenzenesulfonamide], the EC50 in assay [1] (setting [5]) turned out to be 3.05 µM. For the molecule `Nc1n[nH]c2ccc(-c3ccc(S(=O)(=O)N4CC[C@@H](O)C4)cc3Cl)c(Cl)c12` [Example 8, (R)-1-((4-(3-amino-4-chloro-1H-indazol-5-yl)-3-chlorophenyl)sulfonyl)pyrrolidin-3-ol], the EC50 in assay [1] (setting [5]) is 3.6 µM. For the molecule `COc1c(-c2ccc(S(=O)(=O)N[C@@H]3CCC[C@@H]3O)cc2Cl)ccc2[nH]nc(N)c12` [Example 74], in assay [1] (setting [5]), the EC50 turned out to be 0.286 µM.

As to `COc1c(-c2ccc(S(=O)(=O)N3CC(F)(F)C[C@H]3CO)cc2Cl)ccc2[nH]nc(N)c12` [Example 86, (S)-(1-((4-(3-amino-4-methoxy-1H-indazol-5-yl)-3-chlorophenyl)sulfonyl)-4,4-difluoropyrrolidin-2-yl)methanol], the EC50 in assay [1] (setting [5]) was 0.731 µM. Same read-out and setting: for `Cc1c(-c2ccc(S(=O)(=O)N3CC(C)(C)C3)cc2Cl)ccc2[nH]nc(N)c12` [Example 1, 5-(2-chloro-4-((3,3-dimethylazetidin-1-yl)sulfonyl)phenyl)-4-methyl-1H-indazol-3-amine] the value was 0.773 µM. On the same count and under the same terms, for `Cc1c(-c2c(F)cc(S(=O)(=O)N3CC(F)(F)C[C@H]3CO)cc2F)ccc2[nH]nc(N)c12` [Example 89, (S)-(1-((4-(3-amino-4-methyl-1H-indazol-5-yl)-3,5-difluorophenyl)sulfonyl)-4,4-difluoropyrrolidin-2-yl)methanol] the value was 0.554 µM.
